Test system: Glucane Synthesis of Candida Albicans
Test: Inhibition of the glucane synthesis of Candida albicans (membrane preparation, 14C-UDP glucose incorporation)
Type: biochemical
Conditions: Candida albicans membranes, 25° C., 1 hour
Experimental: Pharmacological Study A—Inhibition of the Glucane Synthesis of Candida Albicans.
The membranes of Candida albicans are purified according to the process described by Tang and al Antimicrob. Agents Chemother 35, 99–103, 1991. 22.5 μg of membrane proteins are incubated in a mixture of 2 Mm of 14C-UDP glucose (specific activity=0.34 mCi./mmol, 50 μg of α-amylase, 1 Mm of dithiotreitol (DTT), 1 Mm EDTA, 100 Mm NaF, 7 μM of GTP-γ-S, 1M of sucrose and 5 oMm OF Ttris-HCL (pH 7.8) in a volume of 100 μl. The medium is incubated at 25° C. for 1 hour and the reaction terminated by addition of TCA to a final concentration of 5%. The reaction medium is transferred onto a pre-humidified glass fibre filter. The filter is washed, dried and its radioactivity is counted.
Mulundocandin is used as positive control.
The control of the medium is carried out with the same quantity of DMSO 1%.

Substance	Inhibition of the glucane synthesis of Candida albicans (activity in words)
Trifluoroacetate of 1-[4-[(2-aminoethyl) amino]-N2-(12-methyl-1-oxotetradecyl)-L-ornithine]4-[4-(4-hydroxyphenyl)-L-threonine]-5-L serine echinocandin B (isomer A and isomer B) [Example 9]	good activity
Trifluoroacetate of 1-[4-[(2-aminoethyl) amino]N2-[[4′-(octyloxy)[1.1′-biphenyl]-4-[carbonyl]-L-ornithine]4-[4-(4-(4-hydroxyphenyl)-L-threonine]-5-L serine echinocandin B (isomer A) [Example 14]	good activity
(±) Trifluoroacetate of 1-[4-[(aminoiminomethyl)hydrazono]-N2-(12-methyl-1-oxotetradecyl)-L-ornithine]4-[4-(4-hydroxyphenyl)-L-threonine]-5-L serine echinocandin B [Example 11]	good activity

Source: US7160983B2, “Echinocandin derivatives, their method of preparation and their application as anti-fungal agents” (Aventis Pharma S.A., priority 1997, dated 2007)
